In paper PMC8748766, “The catalytic activity of TCPTP is auto-regulated by its intrinsically disordered tail and activated by Integrin alpha-1” (Nature Communications, 2022):

B1: TCPTP_(Tail) (residues 289-387) (domain or fragment, human, UniProt P17706-2 289-387, looked up)
chain: WKELSKEDLSPAFDHSPNKIMTEKYNGNRIGLEEEKLTGDRCTGLSSKMQDTMEENSESALRKRIREDRKATTAQKVQQMKQRLNENERKRKRPRLTDT
notes: T cell protein tyrosine phosphatase (TCPTP, PTPN2), human, TC45 isoform, C-terminal tail residues 289-387, cloned into pMCSG7; used for cross-linking in trans; source: E. coli BL21 (DE3) RIL, purified (His-trap, TEV cleavage, subtraction, heat step 80 °C 10 min, SEC); not shown: His6, N-terminal, cleaved

Assays:
TCPTP = settings: via the cytoplasmic tail of ITGA1; cited from earlier work
[1] = target: T1, TCPTPCAT (residues 1-288) (human, UniProt P17706-2 1-288); assay: cross-linking; in trans: TCPTPCAT (1-288) 0.75 μM with TCPTP_Tail (289-387) 75 or 150 μM (1:100 and 1:200), BS3 or DSSO 0 to 1000 μM, 25 mM Hepes pH 7.4, 50 mM NaCl, room temperature 1 h; band cut from SDS-PAGE, LC-MS or LC-MSn; settings: both partners purified
T1 construct: T cell protein tyrosine phosphatase (TCPTP, PTPN2), human, TC45 isoform, catalytic domain residues 1-288, cloned into pMCSG7; used for cross-linking in trans; source: E. coli BL21 (DE3) RIL, purified (His-trap, TEV cleavage, subtraction, SEC); not shown: His6, N-terminal, cleaved
T1 sequence (looked up): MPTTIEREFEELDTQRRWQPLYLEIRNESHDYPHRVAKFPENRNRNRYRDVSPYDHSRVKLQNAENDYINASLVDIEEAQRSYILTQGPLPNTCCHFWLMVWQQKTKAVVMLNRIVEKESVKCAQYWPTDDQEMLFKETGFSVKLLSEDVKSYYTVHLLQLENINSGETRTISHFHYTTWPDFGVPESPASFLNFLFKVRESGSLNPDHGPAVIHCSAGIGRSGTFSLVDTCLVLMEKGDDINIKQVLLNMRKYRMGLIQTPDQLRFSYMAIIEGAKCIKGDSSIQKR

Row | Molecule | activation of full-length TCPTP (TCPTP) | binding result [1]
1 | integrin α1: collagen-binding integrin α1 (ITGA1) | activate full-length TCPTP | 
2 | B1 |  | binds
